According to patent publication US20030162825A1, “D-amino acid oxidase inhibitors for learning and memory” (SEPRACOR INC., priority 2001, published 2003):
Entries after “also recorded” stand apart in the source; their conditions may differ.

Tests used:
[1] = target: T1, Porcine kidney D-amino acid oxidase (Sus scrofa, UniProt P00371); assay: D-amino acid oxidase inhibition assay (Amplex Red Hydrogen Peroxide Assay Kit); assay type: biochemical; settings: D-serine substrate, reaction time five minutes; for inhibition at 40 µg/mL: inhibitor at 40 μg/mL
T1 construct: purchased Sigma Company A-5222; host or cells: porcine kidney
Experimental: A working solution was prepared by mixing: sodium phosphate buffer (8.7 ml, 0.025M, pH 7.4), D-serine solution (1.0 ml, 100 mM in water), horseradish peroxidase (0.2 ml, 200 U/ml in buffer), and Amplex™ Red solution (0.1 ml, 1 mg dye in 200 μl in DMSO (50 μM in DMSO)). A working enzyme solution was prepared by diluting a D-amino oxidase stock solution (65 U/ml) one hundred fold. The working solution (100 μl) was transferred to wells of a Microfluor B microtiter plate and a solution of the inhibitor in DMF was added.
Control experiments were carried out using DMF in the absence of inhibitor.

rats = assay: Morris water maze test (learning and memory); assay type: in vivo, rat
Experimental: Training was conducted in a circular pool (160 cm in diameter) filled with water to a depth of 35 cm. The walls of the pool were blue, and the water was made opaque by the addition of approximately 20 ml of white, non-toxic water-based food dye. Water temperature was maintained at approximately 25° C.
During training, rats learn to swim to a submerged platform (approximately 2.5 cm below the surface) constructed of Nalgene with a roughened Plexiglas surface. The surface diameter was approximately 16 cm and its height was approximately 27.5 cm. Experiments were conducted in a darkened room. Lighting of the water-maze was arranged so that illumination of the pool was dim and equivalent in all quadrants. Both acquisition data and retention probe data were collected using Videomex Morris maze software and interface (Columbus Instruments, Columbus, Ohio). The apparatus monitored the animal's progress using a video camera connected to a monitor and a video analysis computer that was outside the view of the swimming animal. Latencies to escape to the platform, the animal's swimming route, and its time spent in the platform-containing quadrant were measured.
Morris maze acquisition training (learning) consisted of 18 trials presented in 6 blocks of 3 trials each. During all training and testing procedures, the experimenter was blind to the animal group membership. To orient the animals to the task, training began with placement of the animal's front paws onto the platform followed by 10 sec of the animal's standing on the platform. Immediately after the third placement, training commenced with the first block of 3 trials. The platform was placed in the center of the southwest quadrant for all training. On each trial, rats were placed into the pool randomly at one of 6 different angular directions. […] Latency to escape to the platform was measured for each trial. […]
[…] The amount of time spent in the quadrant previously occupied by the platform and number of crosses over the previous position of the platform were recorded for each animal. […]

T1 sequence (P00371 whole entry): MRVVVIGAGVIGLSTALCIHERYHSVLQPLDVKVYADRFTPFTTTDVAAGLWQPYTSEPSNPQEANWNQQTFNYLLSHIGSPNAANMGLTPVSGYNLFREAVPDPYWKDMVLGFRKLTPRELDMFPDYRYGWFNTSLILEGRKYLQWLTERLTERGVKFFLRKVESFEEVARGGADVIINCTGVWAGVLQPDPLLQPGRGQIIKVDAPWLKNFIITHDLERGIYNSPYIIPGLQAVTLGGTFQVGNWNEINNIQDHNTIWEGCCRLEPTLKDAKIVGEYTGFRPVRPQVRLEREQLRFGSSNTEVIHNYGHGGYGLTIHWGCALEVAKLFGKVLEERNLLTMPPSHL

| Compound | IC50 [1] | inhibition at 40 µg/mL [1] | also measured |
| --- | --- | --- | --- |
| O=C(O)c1cc2ccccc2[nH]1 [compound 1] | 2 µM | 93% |  |
| O=C(O)c1ccc[nH]1 [compound 3] |  | 87% |  |
| O=C(O)c1ccc([N+](=O)[O-])c2c1NC(c1ccc([N+](=O)[O-])cc1)C1CC=CC21 (stereo not shown) [compound 11] | 29 µM |  |  |
| O=C(O)c1cc2ccccc2o1 [compound 5] |  | 85% |  |
| O=C(O)c1ccc([N+](=O)[O-])c2c1NC(c1ccccc1)C1CC=CC21 (stereo not shown) [compound 10] | 17 µM |  |  |
| Cn1c(C(=O)O)cc2ccccc21 [compound 6] |  | 58% |  |
| O=C(O)c1cc2ccccc2[nH]1 [I-2-C, indole-2-carboxylic acid] |  |  | retention (seconds swimming in the quadrant previously containing the escape platform) (rats; first experiment: 200 mg/kg ip four times, one hour before first, second, fourth and sixth training period, four days after training): improved retention; retention in seconds (rats; second experiment: single injection 200 mg/kg, eight days later, 200 mg/kg): improving effect on retention; also recorded: improved retention; retention (rats; third experiment: single injection 200 mg/kg, first probe trial): improved retention |
| COc1ccc2[nH]c(C(=O)O)cc2c1 [compound 7] |  | 32% |  |
| O=C(O)c1cc2cc(O)ccc2[nH]1 [compound 2] |  | 90% |  |
| O=C(O)c1cc2cc(Cl)ccc2[nH]1 [compound 4] |  | 86% |  |
